Test results taken from PMC12543186, “Discovery of C-12 dithiocarbamate andrographolide analogue as a novel antioxidant and α-glucosidase inhibitors: In vitro and in silico studies” (PLOS One, 2025).
pIC50, pKd: −log10 of the molar value. Where “and” joins values, the source holds several entries; their conditions need not be identical. Identical values can stand only once. Like-named read-outs stand apart in the source and are kept apart here.

Experiments:
[1] = DPPH radical scavenging activity
Experimental: The DPPH radical scavenging activity was conducted to thoroughly evaluate the antioxidant potential of andrographolide and its analogues. We modified the assay employing the Sekhon-Loodu and Rupasinghe methods. A DPPH solution was prepared in absolute ethanol, with a concentration of 200 μM. Next, 100 μL of DPPH solution was mixed with 100 μL of the sample in a 96-well plate. The mixture was then incubated for 30 minutes at room temperature. Following incubation, we measured the absorbance at 517 nm using a microplate reader. We tested the antioxidant properties of the compounds at a concentration of 500 μM to detect the weak-to-moderate antioxidants while addressing solubility limitations and minimizing assay artefacts, consistent with previous research. The DPPH radical scavenging activity was precisely expressed as a percentage of DPPH inhibition (% DPPH Inhibition). We selected candidates based on their higher inhibitory activity and prepared various concentrations of these candidates for testing. α-tocopherol, also known as vitamin E, was employed as a positive control. The % DPPH Inhibition was calculated as follows:
%DPPH Inhibition=(1–{A/B})×100
Where A was the absorbance of the DPPH with sample, and B was the absorbance of the DPPH with vehicle (blank).

[2] = Ferric reducing antioxidant power (FRAP) activity
Experimental: The FRAP activity assay was performed to assess the reducing power ability to reduce ferric ions (Fe^3+) to ferrous ions (Fe^2+), following the established method described by Sekhon-Loodu and Rupasinghe. The FRAP reagent was freshly prepared by combining 300 mM acetate buffer pH 3.6, 10 mM 2,4,6- Tri(2-pyridyl)-s-triazine (TPTZ) dissolved in 40 mM HCl, and 20 mM FeCl3 in a ratio of 10:1:1. Ferrous sulfate (FeSO4) was used as a standard, with ascorbic acid serving as a control. The assay was conducted in a 96-well plate by mixing 20 μL of the sample, standard, or positive control with 80 μL of the FRAP solution. The mixture was then incubated for 20 minutes at room temperature, after which we measured absorbance at 595 nm using a microplate reader. The results were expressed as FRAP value, reported as ascorbic acid equivalent in μM (AAE, μM), providing a definitive measure of reducing power.

[3] = target: T1, α-glucosidase from Saccharomyces cerevisiae (Saccharomyces cerevisiae, UniProt P38158); assay: Surface plasmon resonance, steady-state affinity; type: binding
T1 sequence (P38158 whole entry): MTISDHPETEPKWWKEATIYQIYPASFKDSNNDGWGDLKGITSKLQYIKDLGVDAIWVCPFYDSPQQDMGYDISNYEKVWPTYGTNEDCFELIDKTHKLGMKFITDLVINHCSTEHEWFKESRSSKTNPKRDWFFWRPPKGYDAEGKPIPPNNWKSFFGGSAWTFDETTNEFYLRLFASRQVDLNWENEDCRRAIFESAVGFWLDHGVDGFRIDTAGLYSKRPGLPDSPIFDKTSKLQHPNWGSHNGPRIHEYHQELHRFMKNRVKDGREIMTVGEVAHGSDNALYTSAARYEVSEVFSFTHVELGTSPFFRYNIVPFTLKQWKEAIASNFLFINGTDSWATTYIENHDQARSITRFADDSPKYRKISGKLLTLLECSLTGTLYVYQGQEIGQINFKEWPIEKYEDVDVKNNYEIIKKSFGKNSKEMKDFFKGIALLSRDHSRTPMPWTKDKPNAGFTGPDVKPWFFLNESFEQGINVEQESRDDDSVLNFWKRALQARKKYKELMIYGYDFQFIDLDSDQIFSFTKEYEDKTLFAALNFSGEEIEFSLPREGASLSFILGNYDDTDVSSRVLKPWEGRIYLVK
Experimental: All experiments were conducted using a Biacore X100 instrument at 25 °C with a running buffer of 1X PBS-P+ (10 mM phosphate buffer pH 7.4, 2.7 mM KCl, 137 mM NaCl, 0.05% Tween 20) supplemented with 5% DMSO. Compounds were initially dissolved in DMSO to a final concentration of 14 mM. The stock solution was then diluted to 700 μM in 1.05X PBS-P+ to prepare a compound solution containing 1X PBS-P+ with 5% DMSO. This compound solution was utilized to prepare the required concentrations for injections into the Biacore system. α-glucosidase from Saccharomyces cerevisiae was immobilized onto a CM5 chip following standard amine coupling procedures: the CM5 chip, containing channel 1 and 2, was activated with an injection of NHS/EDC mixture with a contact time of 540 s at a flow rate of 10 µL/min. This was followed by multiple injections of α-glucosidase dissolved in 10 mM sodium acetate pH 4.0 (50 µg/mL) onto channel 2, also with a contact time of 540 s at a flow rate of 10 µL/min. Both channels were inactivated by an injection of 1M ethanolamine at a flow rate of 10 µL/min for 540 s. An immobilization level of 3300 RU of α-glucosidase was achieved.
Multi-cycle affinity studies were conducted with a 100 s association phase and a 60 s dissociation phase, using a flow rate of 30 µL/min. Compounds were injected onto the chip at increasing concentrations of 7, 21, 70, 210, and 490 μM. Binding measurements were taken after reference subtraction of channel 1 (no immobilized α-glucosidase) and after subtracting the results from a blank injection with zero analyte concentration. All data evaluation was performed with Biacore X100 evaluation software (version 2.0).

[4] = target: T1, α-glucosidase from Saccharomyces cerevisiae; assay: α-glucosidase inhibition activity (p-NPG substrate); type: biochemical
Experimental: An in vitro α-glucosidase inhibitory assay is commonly used to evaluate the inhibitory effects of various compounds on the enzyme α-glucosidase, which is involved in carbohydrate digestion. Inhibiting this enzyme results in slower glucose absorption, which can be beneficial for managing postprandial blood sugar levels in diabetic conditions. This assay was modified from the methods described by Yusuf et al.. The procedure involved mixing 25 μL of the sample, 150 μL of phosphate buffer saline (PBS) pH 7.4, and 75 μL of 10 mM p-NPG. The mixture was incubated at 37 °C for 10 min. Next, 50 μL of α-glucosidase enzyme from Saccharomyces cerevisiae at a concentration of 0.1 U/mL was added, then incubated at 37 °C for 10 min. To terminate the reaction, […] of 0.1 M sodium carbonate (Na2CO3) was added to the mixture. The absorbance was measured using a microplate reader. The percentage of α-glucosidase inhibition was calculated as follows:
α−glucosidase inhibition(%)=(1–{A−B/C−D})×100
Where A was the absorbance of the sample with α-glucosidase enzyme, B was the absorbance of the sample, C was the absorbance of vehicle with α-glucosidase enzyme, and D was the absorbance of the vehicle (blank).

[5] = 500 μM, second replicate column

C=C1CCC2C(C)(COC(C)=O)C(OC(C)=O)CCC2(C)C1CC(SC(=S)N1CCN(c2ccc(O)cc2)CC1)C1=CCOC1=O (stereo not shown) [compound 3f]
pIC50 ([1]; 200 μM DPPH solution): ~4.60
% Inhibition (DPPH), replicate 1 ([1]; 500 μM, first replicate column): 85.7465%
% DPPH Inhibition, Mean ([1]; 500 μM, mean of n = 3): 84% and 84.47 ± 1.14% and 84.4719%
% Inhibition (DPPH), replicate 2 [1, 5]: 83.5328%
% Inhibition (DPPH), replicate 3 ([1]; 500 μM, third replicate column): 84.1364%
FRAP, Ascorbic acid equivalent, replicate 1 ([2]; 500 μM, first replicate column): 109.9203 AAE, μM
FRAP, Ascorbic acid equivalent, replicate 2 [2, 5]: 87.9587 AAE, μM
FRAP, Ascorbic acid equivalent, replicate 3 ([2]; 500 μM, third replicate column): 67.0175 AAE, μM
FRAP activity ([2]; 600 μM): 253.90 ± 47.40 AAE
pKd [3]: 4.89
fold stronger affinity than andrographolide ([3]; from SPR KD values): approximately 10 fold
pIC50 ([4]; IC50 (α-glucosidase inhibitory activity), concentration range up to 2000 μM): 3.39 and ~3.39
inhibition at 31.2 µM ([4]; read-out: α-glucosidase inhibition (%), Mean, 31.2 μM): -0.49%
inhibition at 62.5 µM ([4]; read-out: α-glucosidase inhibition (%), Mean, 62.5 μM): 5.53%
inhibition at 125 µM ([4]; read-out: α-glucosidase inhibition (%), Mean, 125 μM): 15.2%
inhibition at 250 µM ([4]; read-out: α-glucosidase inhibition (%), Mean, 250 μM): 26.6%
inhibition at 500 µM ([4]; read-out: α-glucosidase inhibition (%), Mean, 500 μM): 56.3%
inhibition at 1000 µM ([4]; read-out: α-glucosidase inhibition (%), Mean, 1000 μM): 78%
inhibition at 2000 µM ([4]; read-out: α-glucosidase inhibition (%), Mean, 2000 μM): 81.9%
inhibition at 31.2 µM ([4]; read-out: α-glucosidase inhibition (%), replicate 1, 31.2 μM, first replicate column): 3.15%
inhibition at 62.5 µM ([4]; read-out: α-glucosidase inhibition (%), replicate 1, 62.5 μM, first replicate column): 5.24%
inhibition at 125 µM ([4]; read-out: α-glucosidase inhibition (%), replicate 1, 125 μM, first replicate column): 19.1%
inhibition at 250 µM ([4]; read-out: α-glucosidase inhibition (%), replicate 1, 250 μM, first replicate column): 28.2%
inhibition at 500 µM ([4]; read-out: α-glucosidase inhibition (%), replicate 1, 500 μM, first replicate column): 59.3%
inhibition at 1000 µM ([4]; read-out: α-glucosidase inhibition (%), replicate 1, 1000 μM, first replicate column): 78.6%
inhibition at 2000 µM ([4]; read-out: α-glucosidase inhibition (%), replicate 1, 2000 μM, first replicate column): 81.9%
inhibition at 31.2 µM ([4]; read-out: α-glucosidase inhibition (%), replicate 2, 31.2 μM, second replicate column): -1.2%
inhibition at 62.5 µM ([4]; read-out: α-glucosidase inhibition (%), replicate 2, 62.5 μM, second replicate column): 7.4%
inhibition at 125 µM ([4]; read-out: α-glucosidase inhibition (%), replicate 2, 125 μM, second replicate column): 17.6%
inhibition at 250 µM ([4]; read-out: α-glucosidase inhibition (%), replicate 2, 250 μM, second replicate column): 28.1%
inhibition at 500 µM ([4]; read-out: α-glucosidase inhibition (%), replicate 2, 500 μM, second replicate column): 57.1%
inhibition at 1000 µM ([4]; read-out: α-glucosidase inhibition (%), replicate 2, 1000 μM, second replicate column): 78%
inhibition at 2000 µM ([4]; read-out: α-glucosidase inhibition (%), replicate 2, 2000 μM, second replicate column): 81.9%
inhibition at 31.2 µM ([4]; read-out: α-glucosidase inhibition (%), replicate 3, 31.2 μM, third replicate column): -3.42%
inhibition at 62.5 µM ([4]; read-out: α-glucosidase inhibition (%), replicate 3, 62.5 μM, third replicate column): 3.94%
inhibition at 125 µM ([4]; read-out: α-glucosidase inhibition (%), replicate 3, 125 μM, third replicate column): 8.93%
inhibition at 250 µM ([4]; read-out: α-glucosidase inhibition (%), replicate 3, 250 μM, third replicate column): 23.5%
inhibition at 500 µM ([4]; read-out: α-glucosidase inhibition (%), replicate 3, 500 μM, third replicate column): 52.6%
inhibition at 1000 µM ([4]; read-out: α-glucosidase inhibition (%), replicate 3, 1000 μM, third replicate column): 77.3%
inhibition at 2000 µM ([4]; read-out: α-glucosidase inhibition (%), replicate 3, 2000 μM, third replicate column): 82%
